Assay results: ChEMBL document CHEMBL3885861, “Open TG-GATES”

Organism: Rattus norvegicus
Assay: Open TG-GATES - Regimen: Single
Assay type: toxicity, organism-based, Sprague-Dawley
Set-up: regimen Single, gender Male, age 6 weeks
Details: in vivo, po, route gavage; for APTT / Bas / Eos / Fbg / Hb / Ht / Lym / MCH / MCHC / MCV / Mono / Neu / PT / Plat / RBC / Ret / WBC: tissue Blood; for KIDNEY_L / KIDNEY_R / KIDNEY_TOTAL: tissue Kidney; for LIVER: tissue Liver; for A/G / ALP / ALT / AST / BUN / CRE / Ca / Cl / DBIL / GLC / IP / K / LDH / Na / PL / RALB / TBIL / TC / TG / TP / gamma-GTP: tissue Plasma
[1] = 0 mg/kg, 3 h, dose level Control
[2] = 0 mg/kg, 6 h, dose level Control
[3] = 0 mg/kg, 9 h, dose level Control
[4] = 0 mg/kg, 24 h, dose level Control

## CN1C(=O)OC(C)(C)C1=O [TRIMETHADIONE]
[1]
  TERMINAL_BW: 205.3 g
  APTT: 17.8 s
  Bas: 0.2%
  Eos: 0.8%
  Fbg: 261 mg/dL
  Hb: 13.4 g/dL
  Ht: 40.1%
  Lym: 79.8%
  MCH: 21.8 pg
  MCHC: 33.5%
  MCV: 65.1 fL
  Mono: 3%
  Neu: 16%
  PT: 13.8 s
  Plat: 125.1 x10_4/uL
  RBC: 616.4 x10_4/ul
  Ret: 8.2%
  WBC: 86.1 x10_2/uL
  KIDNEY_L: 1 g
  KIDNEY_R: 0.9 g
  KIDNEY_TOTAL: 1.9 g
  LIVER: 9 g
  A/G: 0.9
  ALP: 1845.4 IU/L
  ALT: 43.8 IU/L
  AST: 85 IU/L
  BUN: 9.6 mg/dL
  CRE: 0.2 mg/dL
  Ca: 10.6 mg/dL
  Cl: 107.4 meq/L
  DBIL: 0.006 mg/dL
  GLC: 181.4 mg/dL
  IP: 8.9 mg/dL
  K: 4.2 meq/L
  LDH: 152 IU/L
  Na: 140.6 meq/L
  PL: 133.8 mg/dL
  RALB: 2.5 g/dL
  TBIL: 0.07 mg/dL
  TC: 72.2 mg/dL
  TG: 42.6 mg/dL
  TP: 5.3 g/dL
  gamma-GTP: 1.2 IU/L
[2]
  TERMINAL_BW: 205.6 g
  APTT: 18.9 s
  Bas: 0%
  Eos: 1%
  Fbg: 284.2 mg/dL
  Hb: 13.1 g/dL
  Ht: 39.6%
  Lym: 77.4%
  MCH: 21.4 pg
  MCHC: 33.2%
  MCV: 64.4 fL
  Mono: 2.4%
  Neu: 19%
  PT: 13.8 s
  Plat: 122.3 x10_4/uL
  RBC: 615.2 x10_4/ul
  Ret: 8.7%
  WBC: 78 x10_2/uL
  KIDNEY_L: 0.9 g
  KIDNEY_R: 0.9 g
  KIDNEY_TOTAL: 1.9 g
  LIVER: 8.6 g
  A/G: 0.9
  ALP: 1304.6 IU/L
  ALT: 34.4 IU/L
  AST: 72.2 IU/L
  BUN: 9 mg/dL
  CRE: 0.2 mg/dL
  Ca: 10.5 mg/dL
  Cl: 108.2 meq/L
  DBIL: 0.002 mg/dL
  GLC: 176.4 mg/dL
  IP: 8.9 mg/dL
  K: 4.2 meq/L
  LDH: 109.8 IU/L
  Na: 140.6 meq/L
  PL: 145.4 mg/dL
  RALB: 2.5 g/dL
  TBIL: 0.064 mg/dL
  TC: 83 mg/dL
  TG: 49.6 mg/dL
  TP: 5.4 g/dL
  gamma-GTP: 1.4 IU/L
[3]
  TERMINAL_BW: 205.5 g
  APTT: 19.5 s
  Bas: 0%
  Eos: 0.8%
  Fbg: 276.8 mg/dL
  Hb: 13.5 g/dL
  Ht: 40.8%
  Lym: 75.2%
  MCH: 20.9 pg
  MCHC: 33%
  MCV: 63.4 fL
  Mono: 2.2%
  Neu: 21.4%
  PT: 13.7 s
  Plat: 114.8 x10_4/uL
  RBC: 642.8 x10_4/ul
  Ret: 7.6%
  WBC: 82.3 x10_2/uL
  KIDNEY_L: 0.9 g
  KIDNEY_R: 0.9 g
  KIDNEY_TOTAL: 1.7 g
  LIVER: 7.9 g
  A/G: 0.9
  ALP: 1637 IU/L
  ALT: 38 IU/L
  AST: 77 IU/L
  BUN: 9.6 mg/dL
  CRE: 0.2 mg/dL
  Ca: 10.5 mg/dL
  Cl: 108 meq/L
  DBIL: 0.002 mg/dL
  GLC: 176.6 mg/dL
  IP: 9.7 mg/dL
  K: 3.9 meq/L
  LDH: 76.4 IU/L
  Na: 141.4 meq/L
  PL: 133.6 mg/dL
  RALB: 2.5 g/dL
  TBIL: 0.064 mg/dL
  TC: 72.8 mg/dL
  TG: 31.2 mg/dL
  TP: 5.4 g/dL
  gamma-GTP: 1.2 IU/L
[4]
  TERMINAL_BW: 223.7 g
  APTT: 17.1 s
  Bas: 0%
  Eos: 1%
  Fbg: 254 mg/dL
  Hb: 13.1 g/dL
  Ht: 39.5%
  Lym: 77.2%
  MCH: 21.8 pg
  MCHC: 33%
  MCV: 66.1 fL
  Mono: 3%
  Neu: 18.2%
  PT: 13.3 s
  Plat: 113.7 x10_4/uL
  RBC: 598 x10_4/ul
  Ret: 7.3%
  WBC: 99.1 x10_2/uL
  KIDNEY_L: 1 g
  KIDNEY_R: 0.9 g
  KIDNEY_TOTAL: 1.9 g
  LIVER: 10.4 g
  A/G: 0.9
  ALP: 1802.2 IU/L
  ALT: 47.2 IU/L
  AST: 74.8 IU/L
  BUN: 15 mg/dL
  CRE: 0.2 mg/dL
  Ca: 10.9 mg/dL
  Cl: 104.8 meq/L
  DBIL: 0.01 mg/dL
  GLC: 165.4 mg/dL
  IP: 7.8 mg/dL
  K: 4 meq/L
  LDH: 82 IU/L
  Na: 142.8 meq/L
  PL: 161 mg/dL
  RALB: 2.6 g/dL
  TBIL: 0.056 mg/dL
  TC: 85.6 mg/dL
  TG: 92.2 mg/dL
  TP: 5.6 g/dL
  gamma-GTP: 1 IU/L
50 mg/kg, 3 h, dose level Low
  TERMINAL_BW: 208.1 g
  APTT: 16.8 s
  Bas: 0%
  Eos: 0.8%
  Fbg: 278 mg/dL
  Hb: 13.4 g/dL
  Ht: 40.2%
  Lym: 78.4%
  MCH: 21.3 pg
  MCHC: 33.3%
  MCV: 64 fL
  Mono: 3%
  Neu: 17.4%
  PT: 13.8 s
  Plat: 129 x10_4/uL
  RBC: 628.4 x10_4/ul
  Ret: 8.1%
  WBC: 86.2 x10_2/uL
  KIDNEY_L: 0.9 g
  KIDNEY_R: 0.9 g
  KIDNEY_TOTAL: 1.8 g
  LIVER: 9.6 g
  A/G: 0.9
  ALP: 1564.2 IU/L
  ALT: 42.6 IU/L
  AST: 80.4 IU/L
  BUN: 10.4 mg/dL
  CRE: 0.2 mg/dL
  Ca: 10.6 mg/dL
  Cl: 108.2 meq/L
  DBIL: 0.006 mg/dL
  GLC: 180.8 mg/dL
  IP: 8.7 mg/dL
  K: 4.1 meq/L
  LDH: 133.8 IU/L
  Na: 141.4 meq/L
  PL: 146.8 mg/dL
  RALB: 2.5 g/dL
  TBIL: 0.064 mg/dL
  TC: 76.4 mg/dL
  TG: 77.8 mg/dL
  TP: 5.4 g/dL
  gamma-GTP: 1.6 IU/L
50 mg/kg, 6 h, dose level Low
  TERMINAL_BW: 207.4 g
  APTT: 17 s
  Bas: 0%
  Eos: 1%
  Fbg: 268.2 mg/dL
  Hb: 13.5 g/dL
  Ht: 40.5%
  Lym: 78.6%
  MCH: 21.6 pg
  MCHC: 33.2%
  MCV: 64.9 fL
  Mono: 2.4%
  Neu: 17.2%
  PT: 13.7 s
  Plat: 120 x10_4/uL
  RBC: 625.4 x10_4/ul
  Ret: 8%
  WBC: 71.3 x10_2/uL
  KIDNEY_L: 0.9 g
  KIDNEY_R: 0.9 g
  KIDNEY_TOTAL: 1.9 g
  LIVER: 8.6 g
  A/G: 0.9
  ALP: 1854.2 IU/L
  ALT: 39.8 IU/L
  AST: 79.8 IU/L
  BUN: 10.8 mg/dL
  CRE: 0.2 mg/dL
  Ca: 10.7 mg/dL
  Cl: 108 meq/L
  DBIL: 0.004 mg/dL
  GLC: 185.6 mg/dL
  IP: 8.9 mg/dL
  K: 4.2 meq/L
  LDH: 130.4 IU/L
  Na: 140.8 meq/L
  PL: 139.4 mg/dL
  RALB: 2.5 g/dL
  TBIL: 0.06 mg/dL
  TC: 77.2 mg/dL
  TG: 54.4 mg/dL
  TP: 5.3 g/dL
  gamma-GTP: 1.2 IU/L
50 mg/kg, 9 h, dose level Low
  TERMINAL_BW: 201.4 g
  APTT: 18.8 s
  Bas: 0%
  Eos: 1%
  Fbg: 285.2 mg/dL
  Hb: 13.2 g/dL
  Ht: 39.8%
  Lym: 78.8%
  MCH: 21.5 pg
  MCHC: 33.2%
  MCV: 64.6 fL
  Mono: 2%
  Neu: 17.6%
  PT: 13.6 s
  Plat: 142.2 x10_4/uL
  RBC: 615.4 x10_4/ul
  Ret: 8.1%
  WBC: 80.8 x10_2/uL
  KIDNEY_L: 0.9 g
  KIDNEY_R: 0.9 g
  KIDNEY_TOTAL: 1.8 g
  LIVER: 7.5 g
  A/G: 0.9
  ALP: 1414 IU/L
  ALT: 34.8 IU/L
  AST: 74.6 IU/L
  BUN: 8.4 mg/dL
  CRE: 0.2 mg/dL
  Ca: 10.4 mg/dL
  Cl: 108.6 meq/L
  DBIL: 0.002 mg/dL
  GLC: 158.8 mg/dL
  IP: 9.7 mg/dL
  K: 3.9 meq/L
  LDH: 99.8 IU/L
  Na: 141.2 meq/L
  PL: 143.2 mg/dL
  RALB: 2.5 g/dL
  TBIL: 0.064 mg/dL
  TC: 84.6 mg/dL
  TG: 33.2 mg/dL
  TP: 5.3 g/dL
  gamma-GTP: 1.2 IU/L
50 mg/kg, 24 h, dose level Low
  TERMINAL_BW: 222.7 g
  APTT: 19.1 s
  Bas: 0%
  Eos: 1%
  Fbg: 267 mg/dL
  Hb: 13.4 g/dL
  Ht: 40.3%
  Lym: 76.4%
  MCH: 21.6 pg
  MCHC: 33.2%
  MCV: 64.9 fL
  Mono: 2.8%
  Neu: 19.4%
  PT: 13.4 s
  Plat: 118.6 x10_4/uL
  RBC: 620 x10_4/ul
  Ret: 7.3%
  WBC: 100.7 x10_2/uL
  KIDNEY_L: 1 g
  KIDNEY_R: 1 g
  KIDNEY_TOTAL: 1.9 g
  LIVER: 10 g
  A/G: 0.8
  ALP: 2138 IU/L
  ALT: 47.4 IU/L
  AST: 77.8 IU/L
  BUN: 14.6 mg/dL
  CRE: 0.2 mg/dL
  Ca: 10.8 mg/dL
  Cl: 105 meq/L
  DBIL: 0.008 mg/dL
  GLC: 173.2 mg/dL
  IP: 7.4 mg/dL
  K: 4 meq/L
  LDH: 112.2 IU/L
  Na: 142.6 meq/L
  PL: 151.4 mg/dL
  RALB: 2.6 g/dL
  TBIL: 0.05 mg/dL
  TC: 77.6 mg/dL
  TG: 99.4 mg/dL
  TP: 5.7 g/dL
  gamma-GTP: 1.2 IU/L
